{"source": "patent US9556231B2", "about": "“Beta-hairpin peptidomimetics as CXC4 antagonists” (POLYPHOR AG, priority 2011, dated 2017)", "key": {"[1]": {"test": "Pharmacokinetic study (PK), i.v., CD-1 mice", "type": "in vivo", "settings": "mouse, i.v. 1 mg/kg; for level at 0.083 h / level at 0.25 h / level at 0.5 h / level at 1 h / level at 2 h / level at 3 h / level at 4 h / AUC(0-inf) / Cmax / clearance / half-life / Vd: male, CD-1, in vivo, iv; for level at 0.083 h / level at 0.25 h / level at 0.5 h / level at 1 h / level at 2 h / level at 3 h / level at 4 h: read-out: Calc. Conc. (plasma); for AUC(0-inf) / Cmax / clearance / half-life / Vd: one-compartmental model; for Vd: read-out: Vdis", "procedure": "For the compounds of Ex. 1, Ex. 2, Ex. 3, Ex. 4, Ex. 5 and Ex. 6 pharmacokinetic studies after intravenous (i.v.) administration were performed.\n30 grams (±20%) male CD-1 mice obtained from Charles River Laboratories Deutschland GmbH were used. The vehicle, phosphate buffered saline, was added to give a final concentration of 0.5 mg/mL of the compound. The volume was 2 mL/kg and the compound was injected to give a final intravenous dose of 1 mg/kg. Approximately 300-400 μL of blood was removed under light isoflurane anesthesia by cardiac puncture at predetermined time intervals (5, 15, 30 min and 1, 2, 3, 4, hours) and added to heparinized tubes. Plasma was removed from pelleted cells upon centrifugation and frozen at −80° C. prior to HPLC-MS analysis.\nAliquots of 50 μL each of mouse plasma of untreated aminals (“blank” mouse plasma) were spiked with known amounts of the compounds Ex. 1, Ex. 2, Ex. 3, Ex. 4, Ex. 5 and Ex. 6 in order to obtain 10 plasma calibration samples for each compound in the range 1-4000 ng/mL. Aliquots of 50 μL each of mouse plasma from treated animals were used as plasma study samples.\nAll plasma samples were spiked with an appropriate internal standard and extracted with acetonitrile containing 2% formic acid. Supernatants were evaporated to dryness under nitrogen and the remaining solids reconstituted in water/acetonitrile 95/5 (v/v)+0.2% formic acid.\nExtracts were then analyzed by reverse-phase chromatography (Acquity BEH C18, 100×2.1 mm, 1.7 μm column, Waters for Ex. 1 and Acquity HSS C18 SB, 100×2.1 mm, 1.8 μm column, Waters for Ex. 2, Ex. 3, Ex. 4, Ex. 5 and Ex. 6), using the following conditions: Ex. 1, mobile phases: (A) water/acetonitrile 95/5 (v/v)+0.1% formic acid, (B) acetonitrile/water 95/5 (v/v)+0.1% formic acid, gradient: 1% (B) 0-0.1 min, 15% (B) 0.1-2.5 min for Ex. 1 and 1% (B) 0-0.1 min, 40% (B) 0.1-2.5 min for Ex. 2, Ex. 3, Ex. 4, Ex. 5 and Ex. 6. The detection and quantification was performed by mass spectrometry, with electrospray interface in positive mode and selective fragmentation of analytes (4000 Q Trap mass spectrometer, AB Sciex).\nPK parameters were calculated by WinNonLin™ software version 5.3 (Pharsight-A Certara™ Company, Mountain View, Calif. 94041 USA) using a one-compartmental model analysis. PK parameters were determined by least-square fitting of the model to the experimental data."}, "HSC mobilization": {"tested_on": "HSC mobilization", "test": "HSC mobilization in mouse, dose-response study (CFU-C assay)", "type": "in vivo", "settings": "C57Bl/6 mice, 5 mg/kg i.p., at time of maximum mobilization (Ex. 1 4 h, Ex. 2 2 h)", "procedure": "For the compounds of Ex. 1 and Ex. 2 a HSC mobilization study was performed consisting of a time-response study to assess the time of maximum mobilization after dosing and a subsequent dose-response study.\nMale C57Bl/6 mice (Janvier, France; n=5 per dose group for Ex. 1, n=3 per dose group for Ex. 2) received bolus i.p. injections of Ex. 1 and Ex. 2, respectively, at doses of 0.5, 1.5, 5 and 15 mg/kg (compound dissolved in 10 μL of water per g mouse weight containing 0.9% NaCl). Blood was collected as described above at the time of maximum mobilization for Ex. 1 (4 h) and Ex. 2 (2 h), respectively.\nCFU-C counts were determined by culturing aliquots of lysed peripheral blood in standard semi-solid progenitor cell culture medium. In brief, a defined amount of blood was washed with PBS buffer (Gibco®) containing 0.5% bovine serum albumin, followed by red blood cell lysis in hypotonic NH4Cl buffer (Sigma) and a second wash step. The cell pellet was resuspended in DMEM (Gibco®) containing 10% FCS, suspended in 2 mL of commercially available, cytokine-replete methylcellulose medium for murine cells (Cell Systems, USA), and plated in duplicate into 35 mm cell culture dishes. CFU-C were scored after 7-8 days incubation under standard conditions (20% O2, saturated humidity, 5% CO2, 37° C.). Peripheral blood cellularity was analyzed using an automated blood count machine (Drew Scientific). […]"}}, "note": "Bridge positions count the residues as written; N and C are the ends. Square brackets hold non-standard residues; d marks the D form. Peptide text beside a SMILES is read from it. Lys(iPr) = CC(C)NCCCC[C@H](N)C(=O)O; Orn(iPr) = CC(C)NCCC[C@H](N)C(=O)O", "data": [{"smiles": "COc1ccc(C[C@@H]2NC(=O)[C@H](Cc3c[nH]cn3)NC(=O)[C@H](Cc3ccc(O)cc3)NC(=O)[C@@H]3CCCN3C(=O)[C@H]3CCCN3C(=O)[C@H](CCCCNC(C)C)NC(=O)[C@H](CCC(N)=O)NC(=O)[C@H](Cc3ccc(O)cc3)NC(=O)[C@@H]3CSSC[C@H](NC2=O)C(=O)N[C@@H](CO)C(=O)N[C@@H](C)C(=O)N2CCC[C@@H]2C(=O)N[C@@H](CCCNC(C)C)C(=O)N[C@@H](CCCNC(=N)N)C(=O)N[C@@H](Cc2ccc(O)cc2)C(=O)N3)cc1", "note": "[Ex. 2, cyclo(-Tyr^1-His^2-Tyr(Me)^3-Cys^4-Ser^5-Ala^6-^DPro^7-Orn(iPr)^8-Arg^9-Tyr^10-Cys^11-Tyr^12-Gln^13-Lys(iPr)^14-^DPro^15-Pro^16-), disulfide bond between Cys^4 and Cys^11] (cyclo(YHY(Me)CSA[dP][Orn(iPr)]RYCYQ[Lys(iPr)][dP]P); disulfide 4-11)", "values": [{"measurement": "level at 0.083 h", "setting": "[1]", "value": 1430, "unit": "ng/mL"}, {"measurement": "level at 0.25 h", "setting": "[1]", "value": 1300, "unit": "ng/mL"}, {"measurement": "level at 0.5 h", "setting": "[1]", "value": 836, "unit": "ng/mL"}, {"measurement": "level at 1 h", "setting": "[1]", "value": 578, "unit": "ng/mL"}, {"measurement": "level at 2 h", "setting": "[1]", "value": 234, "unit": "ng/mL"}, {"measurement": "level at 3 h", "setting": "[1]", "value": 68, "unit": "ng/mL"}, {"measurement": "level at 4 h", "setting": "[1]; 4 h", "value": 22, "unit": "ng/mL"}, {"measurement": "AUC(0-inf)", "setting": "[1]", "value": 1520, "unit": "ng·h/mL"}, {"measurement": "Cmax", "setting": "[1]", "value": 1580, "unit": "ng/mL"}, {"measurement": "clearance", "setting": "[1]", "value": 11, "unit": "mL/min/kg"}, {"measurement": "half-life", "setting": "[1]", "value": 42, "unit": "min"}, {"measurement": "Vd", "setting": "[1]", "value": 0.635, "unit": "L/kg"}, {"measurement": "CFU/mL ± SD", "setting": "HSC mobilization", "value": 2894, "unit": "CFU/mL"}]}, {"smiles": "CC(C)NCCCC[C@@H]1NC(=O)[C@H](CCC(N)=O)NC(=O)[C@H](Cc2ccc(O)cc2)NC(=O)[C@@H]2CSSC[C@H](NC(=O)[C@H](Cc3ccc(O)cc3)NC(=O)[C@H](Cc3c[nH]cn3)NC(=O)[C@H](Cc3ccc(O)cc3)NC(=O)[C@@H]3CCCN3C(=O)[C@H]3CCCN3C1=O)C(=O)N[C@@H](CO)C(=O)N[C@@H](C)C(=O)N[C@H](Cc1ccc(O)cc1)C(=O)N[C@@H](CCCNC(C)C)C(=O)N[C@@H](CCCNC(=N)N)C(=O)N[C@@H](Cc1ccc(O)cc1)C(=O)N2", "note": "[Ex. 5, cyclo(-Tyr^1-His^2-Tyr^3-Cys^4-Ser^5-Ala^6-^DTyr^7-Orn(iPr)^8-Arg^9-Tyr^10-Cys^11-Tyr^12-Gln^13-Lys(iPr)^14-^DPro^15-Pro^16-), disulfide bond between Cys^4 and Cys^11] (cyclo(YHYCSA[dY][Orn(iPr)]RYCYQ[Lys(iPr)][dP]P); disulfide 4-11)", "values": [{"measurement": "level at 0.083 h", "setting": "[1]", "value": 1310, "unit": "ng/mL"}, {"measurement": "level at 0.25 h", "setting": "[1]", "value": 984, "unit": "ng/mL"}, {"measurement": "level at 0.5 h", "setting": "[1]", "value": 350, "unit": "ng/mL"}, {"measurement": "level at 1 h", "setting": "[1]", "value": 503, "unit": "ng/mL"}, {"measurement": "level at 2 h", "setting": "[1]", "value": 150, "unit": "ng/mL"}, {"measurement": "level at 3 h", "setting": "[1]", "value": 49, "unit": "ng/mL"}, {"measurement": "level at 4 h", "setting": "[1]; 4 h", "value": 33, "unit": "ng/mL"}, {"measurement": "AUC(0-inf)", "setting": "[1]", "value": 1200, "unit": "ng·h/mL"}, {"measurement": "Cmax", "setting": "[1]", "value": 1310, "unit": "ng/mL"}, {"measurement": "clearance", "setting": "[1]", "value": 13.9, "unit": "mL/min/kg"}, {"measurement": "half-life", "setting": "[1]", "value": 54, "unit": "min"}, {"measurement": "Vd", "setting": "[1]", "value": 1.04, "unit": "L/kg"}]}, {"smiles": "COc1ccc(C[C@@H]2NC(=O)[C@H](Cc3c[nH]cn3)NC(=O)[C@H](Cc3ccc(O)cc3)NC(=O)[C@@H]3CCCN3C(=O)[C@H]3CCCN3C(=O)[C@H](CCCCNC(C)C)NC(=O)[C@H](CCC(N)=O)NC(=O)[C@H](Cc3ccc(O)cc3)NC(=O)[C@@H]3CSSC[C@H](NC2=O)C(=O)N[C@@H](CO)C(=O)N[C@@H](C)C(=O)N[C@H](Cc2ccc(OC)cc2)C(=O)N[C@@H](CCCNC(C)C)C(=O)N[C@@H](CCCNC(=N)N)C(=O)N[C@@H](Cc2ccc(O)cc2)C(=O)N3)cc1", "note": "[Ex. 6, cyclo(-Tyr^1-His^2-Tyr(Me)^3-Cys^4-Ser^5-Ala^6-^DTyr(Me)^7-Orn(iPr)^8-Arg^9-Tyr^10-Cys^11-Tyr^12-Gln^13-Lys(iPr)^14-^DPro^15-Pro^16-), disulfide bond between Cys^4 and Cys^11] (cyclo(YHY(Me)CSA[dY](Me)[Orn(iPr)]RYCYQ[Lys(iPr)][dP]P); disulfide 4-11)", "values": [{"measurement": "level at 0.083 h", "setting": "[1]", "value": 686, "unit": "ng/mL"}, {"measurement": "level at 0.25 h", "setting": "[1]", "value": 435, "unit": "ng/mL"}, {"measurement": "level at 0.5 h", "setting": "[1]", "value": 215, "unit": "ng/mL"}, {"measurement": "level at 1 h", "setting": "[1]", "value": 75, "unit": "ng/mL"}, {"measurement": "level at 2 h", "setting": "[1]", "value": 36, "unit": "ng/mL"}, {"measurement": "level at 3 h", "setting": "[1]", "value": 13, "unit": "ng/mL"}, {"measurement": "AUC(0-inf)", "setting": "[1]", "value": 409, "unit": "ng·h/mL"}, {"measurement": "Cmax", "setting": "[1]", "value": 686, "unit": "ng/mL"}, {"measurement": "clearance", "setting": "[1]", "value": 40.8, "unit": "mL/min/kg"}, {"measurement": "half-life", "setting": "[1]", "value": 48, "unit": "min"}, {"measurement": "Vd", "setting": "[1]", "value": 2.98, "unit": "L/kg"}, {"measurement": "Calc. Conc. (plasma)", "setting": "[1]; 4 h", "value": 7, "unit": "ng/mL"}]}]}
